In PMC8317940, “Strained contacts with the cell membrane may influence ligand affinity to G protein coupled receptors: a case of free fatty acid receptor 1 agonists” (Journal of Enzyme Inhibition and Medicinal Chemistry, 2021):

Molecular target: T1, free fatty acid receptor 1 (FFA1, GPR40) (Homo sapiens, UniProt O14842)
T1 construct: gene FFAR1
Experiment: calcium flux (FLIPR) agonist assay in CHO cells stably expressing human FFA1
Assay type: cell-based

T1 sequence (O14842 whole entry): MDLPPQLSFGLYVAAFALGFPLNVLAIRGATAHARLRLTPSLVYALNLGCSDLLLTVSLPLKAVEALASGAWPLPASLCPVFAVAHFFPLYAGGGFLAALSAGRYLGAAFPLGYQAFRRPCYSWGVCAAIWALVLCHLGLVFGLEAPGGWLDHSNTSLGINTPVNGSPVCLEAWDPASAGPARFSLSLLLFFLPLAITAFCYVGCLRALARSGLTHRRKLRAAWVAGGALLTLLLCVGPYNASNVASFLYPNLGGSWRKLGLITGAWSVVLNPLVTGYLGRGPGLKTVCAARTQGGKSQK

Row | EC50 [nM] | Structure (SMILES)
1 | 1860 | O=C(O)CCc1nnc(C(=O)Nc2ccc(-c3cccc(C(F)(F)F)c3)cc2)s1 [2e, 3-[5-({[3′-(Trifluoromethyl)biphenyl-4-yl]amino}carbonyl)-1,3,4-thiadiazol-2-yl]propanoic acid]
2 | 1320 | O=C(O)CCc1nnc(C(=O)Nc2cccc(-c3ccc(Cl)cc3)c2)s1 [2a, 3-(5-{[(4′-Chlorobiphenyl-3-yl)amino]carbonyl}-1,3,4-thiadiazol-2-yl)propanoic acid]
3 | 1350 | COc1cccc(-c2ccc(NC(=O)c3nnc(CCC(=O)O)s3)cc2)c1 [2g, 3-(5-{[(3′-Methoxybiphenyl-4-yl)amino]carbonyl}-1,3,4-thiadiazol-2-yl)propanoic acid]
4 | 1250 | O=C(O)CCc1nnc(C(=O)Nc2cccc(-c3ccc(OC(F)(F)F)cc3)c2)s1 [2c, 3-[5-({[4′-(Trifluoromethoxy)biphenyl-3-yl]amino}carbonyl)-1,3,4-thiadiazol-2-yl]propanoic acid]
